Source: US12577234B2, “Antagonists of the muscarinic acetylcholine receptor M4” (Vanderbilt University, priority 2017, dated 2026)

Molecular target: T1, human mAChR M4 (Homo sapiens, UniProt P08173)
T1 construct: expressed in transfected cells; host or cells: CHO-K1 (ATCC), stably co-expressing chimeric G protein Gqi5
T1 sequence (P08173 1-479): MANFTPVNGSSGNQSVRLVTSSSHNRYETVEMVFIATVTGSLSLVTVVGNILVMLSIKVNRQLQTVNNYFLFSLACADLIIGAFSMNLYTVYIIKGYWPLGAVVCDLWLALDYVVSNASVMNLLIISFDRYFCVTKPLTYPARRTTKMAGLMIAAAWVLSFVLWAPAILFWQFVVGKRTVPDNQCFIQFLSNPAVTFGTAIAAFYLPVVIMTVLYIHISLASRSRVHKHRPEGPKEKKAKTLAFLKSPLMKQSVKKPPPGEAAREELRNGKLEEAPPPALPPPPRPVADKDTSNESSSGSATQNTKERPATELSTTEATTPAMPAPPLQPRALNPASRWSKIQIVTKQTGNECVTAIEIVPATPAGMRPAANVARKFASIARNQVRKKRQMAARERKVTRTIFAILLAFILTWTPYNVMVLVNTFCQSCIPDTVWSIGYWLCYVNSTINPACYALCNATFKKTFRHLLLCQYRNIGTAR
Experiment: mAChR M4 cell-based functional assay (calcium mobilization, EC80 acetylcholine), human M4
Settings: for IC50: M4/Gqi5/CHO-K1 cells, decrease of EC80 acetylcholine response; for Emin: human M4, % ACh maximum at 30 μM
Outline: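 CHO-K1 cells stably expressing human M4 with chimeric Gqi5; intracellular calcium rise read on FDSS as fluorescence static ratio at 1 Hz. Compounds in 10-point 1:3 dilution series; IC50 taken as concentration-dependent decrease of the EC80 acetylcholine response, four-parameter logistic fit.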

Row | Structure (SMILES) | Human M4 Emin (Table 10) [%] | IC50 (Table 10) [nM] | IC50 (Table 9) [nM] | Emin (Table 9) [%]
1 | Cc1nn(C)cc1-c1ccc(N[C@H]2C[C@@H]3CN(CC4CC5C=CC4C5)C[C@@H]3C2)nn1 (stereo partly drawn) [Compound 2, (3aR,5s,6aS)-2-(5-bicyclo[2.2.1]hept-2-enylmethyl)-N-[6-(1,3-dimethylpyrazol-4-yl)pyridazin-3-yl]-3,3a,4,5,6,6a-hexahydro-1H-cyclopenta[c]pyrrol-5-amine] |  |  | 0.3 | 3.87
2 | Fc1ccc(-c2ccc(N[C@H]3C[C@@H]4CN(CC5CCOCC5)C[C@@H]4C3)nn2)c(Cl)c1 [Compound 203, (3aR,5s,6aS)-N-[6-(2-chloro-4-fluoro-phenyl)pyridazin-3-yl]-2-(tetrahydropyran-4-ylmethyl)-3,3a,4,5,6,6a-hexahydro-1H-cyclopenta[c]pyrrol-5-amine] | 5 | 1.25 |  | 
3 | CCC(C)CN1C[C@H]2CC(COc3ccc(-c4cn(C)nc4C)nn3)C[C@H]2C1 (stereo partly drawn) [Compound 95, (3aR,6aS)-5-[[6-(1,3-dimethylpyrazol-4-yl)pyridazin-3-yl]oxymethyl]-2-(2-methylbutyl)-3,3a,4,5,6,6a-hexahydro-1H-cyclopenta[c]pyrrole] |  |  | 659 | 4.74
4 | Cc1nn(C)cc1-c1ccc(O[C@H]2C[C@@H]3CN(CCC(C)(C)C)C[C@@H]3C2)nn1 [Compound 134, (3aR,5s,6aS)-2-(3,3-dimethylbutyl)-5-[6-(1,3-dimethylpyrazol-4-yl)pyridazin-3-yl]oxy-3,3a,4,5,6,6a-hexahydro-1H-cyclopenta[c]pyrrole] | 4 | 17.3 |  | 
5 | Cc1nn(C)cc1-c1ccc(N[C@H]2C[C@@H]3CN(CC4CCCCC4)C[C@@H]3C2)nn1 [Compound 7, (3aR,5s,6aS)-2-(cyclohexylmethyl)-N-[6-(1,3-dimethylpyrazol-4-yl)pyridazin-3-yl]-3,3a,4,5,6,6a-hexahydro-1H-cyclopenta[c]pyrrol-5-amine] |  |  | 10 | 2.72
6 | Fc1ccc(Cl)c(-c2ccc(N[C@H]3C[C@@H]4CN(CC5CCOCC5)C[C@@H]4C3)nn2)c1 [Compound 32, (3aR,5s,6aS)-N-[6-(2-chloro-5-fluoro-phenyl)pyridazin-3-yl]-2-(tetrahydropyran-4-ylmethyl)-3,3a,4,5,6,6a-hexahydro-1H-cyclopenta[c]pyrrol-5-amine] |  |  | 0.7 | 4.92
7 | CCCC(C)CN1C[C@H]2CC(COc3ccc(-c4cn(C)nc4C)nn3)C[C@H]2C1 (stereo partly drawn) [Compound 96, (3aR,6aS)-5-[[6-(1,3-dimethylpyrazol-4-yl)pyridazin-3-yl]oxymethyl]-2-(2-methylpentyl)-3,3a,4,5,6,6a-hexahydro-1H-cyclopenta[c]pyrrole] |  |  | 301 | 4.62
8 | c1cn2cc(-c3ccc(N[C@H]4C[C@@H]5CN(CC6CCOCC6)C[C@@H]5C4)nn3)ccc2n1 [Compound 183, (3aR,5s,6aS)-N-(6-imidazo[1,2-a]pyridin-6-ylpyridazin-3-yl)-2-(tetrahydropyran-4-ylmethyl)-3,3a,4,5,6,6a-hexahydro-1H-cyclopenta[c]pyrrol-5-amine] | 7 | 1.07 |  | 
9 | Fc1ccc(CN2C[C@H]3C[C@H](Nc4ccc(-c5cc(F)ccc5Cl)nn4)C[C@H]3C2)cc1 [Compound 163, (3aR,5s,6aS)-N-[6-(2-chloro-5-fluoro-phenyl)pyridazin-3-yl]-2-[(4-fluorophenyl)methyl]-3,3a,4,5,6,6a-hexahydro-1H-cyclopenta[c]pyrrol-5-amine] | 3 | 19.7 |  | 
10 | FC1(F)CCN(c2ccc(N[C@H]3C[C@@H]4CN(CC5CCOCC5)C[C@@H]4C3)nn2)CC1 [Compound 190, (3aR,5s,6aS)-N-[6-(4,4-difluoro-1-piperidyl)pyridazin-3-yl]-2-(tetrahydropyran-4-ylmethyl)-3,3a,4,5,6,6a-hexahydro-1H-cyclopenta[c]pyrrol-5-amine] | 4 | 1.67 |  | 
11 | Fc1ccc(Cl)c(-c2ccc(N[C@H]3C[C@@H]4CN(Cc5cccnc5)C[C@@H]4C3)nn2)c1 [Compound 161, (3aR,5s,6aS)-N-[6-(2-chloro-5-fluoro-phenyl)pyridazin-3-yl]-2-(3-pyridylmethyl)-3,3a,4,5,6,6a-hexahydro-1H-cyclopenta[c]pyrrol-5-amine] | 5 | 54.1 |  | 
12 | Fc1ccc(Cl)c(-c2ccc(N[C@H]3C[C@@H]4CN(Cc5cccc6c5OCO6)C[C@@H]4C3)nn2)c1 [Compound 167, (3aR,5s,6aS)-2-(1,3-benzodioxol-4-ylmethyl)-N-[6-(2-chloro-5-fluoro-phenyl)pyridazin-3-yl]-3,3a,4,5,6,6a-hexahydro-1H-cyclopenta[c]pyrrol-5-amine] | 2 | 39.1 |  | 

Further lines, results first:

Row | Human M4 Emin (Table 10) [%] | IC50 (Table 10) [nM] | IC50 (Table 9) [nM] | Emin (Table 9) [%] | Structure (SMILES)
13 | 4 | 42.4 |  |  | Cc1cnn(C)c1-c1ccc(OC[C@@H]2C[C@@H]3CN(CCC(C)(C)C)C[C@@H]3C2)nn1 [Compound 147, (3aR,5r,6aS)-2-(3,3-dimethylbutyl)-5-[[6-(2,4-dimethylpyrazol-3-yl)pyridazin-3-yl]oxymethyl]-3,3a,4,5,6,6a-hexahydro-1H-cyclopenta[c]pyrrole]
14 |  |  | 23 | 3.89 | Cc1cnn(C)c1-c1ccc(NCCC2C[C@@H]3CN(Cc4ccccc4)C[C@@H]3C2)nn1 (stereo partly drawn) [Compound 126, N-[2-[(3aR,6aS)-2-benzyl-3,3a,4,5,6,6a-hexahydro-1H-cyclopenta[c]pyrrol-5-yl]ethyl]-6-(2,4-dimethylpyrazol-3-yl)pyridazin-3-amine]
15 |  |  | 10 | 4.32 | Cc1cnn(C)c1-c1ccc(N[C@H]2C[C@@H]3CN(CC4CCOCC4)C[C@@H]3C2)nn1 [Compound 21, (3aR,5s,6aS)-N-[6-(2,4-dimethylpyrazol-3-yl)pyridazin-3-yl]-2-(tetrahydropyran-4-ylmethyl)-3,3a,4,5,6,6a-hexahydro-1H-cyclopenta[c]pyrrol-5-amine]
16 |  |  | 4010 | 7.39 | Cc1cnn(C)c1-c1ccc(OCC2C[C@@H]3CN(Cc4ccccc4F)C[C@@H]3C2)nn1 (stereo partly drawn) [Compound 87, (3aR,6aS)-5-[[6-(2,4-dimethylpyrazol-3-yl)pyridazin-3-yl]oxymethyl]-2-[(2-fluorophenyl)methyl]-3,3a,4,5,6,6a-hexahydro-1H-cyclopenta[c]pyrrole]
17 |  |  | 8080 | 18.1 | Cc1cnn(C)c1-c1ccc(OCC2C[C@@H]3CN(Cc4ccccn4)C[C@@H]3C2)nn1 (stereo partly drawn) [Compound 89, (3aR,6aS)-5-[[6-(2,4-dimethylpyrazol-3-yl)pyridazin-3-yl]oxymethyl]-2-(2-pyridylmethyl)-3,3a,4,5,6,6a-hexahydro-1H-cyclopenta[c]pyrrole]
18 |  |  | 73.4 | 4.07 | Cc1cnn(C)c1-c1ccc(OCC2C[C@@H]3CN(CC4CC5C=CC4C5)C[C@@H]3C2)nn1 (stereo partly drawn) [Compound 80, (3aR,6aS)-2-(5-bicyclo[2.2.1]hept-2-enylmethyl)-5-[[6-(2,4-dimethylpyrazol-3-yl)pyridazin-3-yl]oxymethyl]-3,3a,4,5,6,6a-hexahydro-1H-cyclopenta[c]pyrrole]
